Assays:
[1] = target: Human immunodeficiency virus type 1 reverse transcriptase (Human immunodeficiency virus 1, UniProt Q72547); assay: Inhibition of wild type HIV-1 reverse transcriptase using biotin-labelled dNTPs as substrate incubated for 2 hrs by ELISA
[2] = Cytotoxicity against human MT4 cells assessed as reduction in cell viability incubated for 5 days by MTT assay; format: toxicity, cell-based; conditions: time 5 day
[3] = tested on: Human immunodeficiency virus 1; assay: Antiviral activity against HIV-1 IIIB infected in human MT4 cells assessed as protection against virus-induced cytotoxicity incubated for 5 days by MTT assay; format: functional, organism-based; conditions: Human immunodeficiency virus 1, IIIB, MT4, 120 h
[4] = Selectivity index, ratio of CC50 for human MT4 cells to EC50 for antiviral activity against HIV-1 IIIB harboring K103N/Y181C double mutant infected in human MT4 cells; format: toxicity, cell-based; conditions: read-out: Ratio CC50/EC50
[5] = tested on: Human immunodeficiency virus 1; assay: Antiviral activity against HIV-1 IIIB harboring K103N/Y181C double mutant infected in human MT4 cells assessed as protection against virus-induced cytotoxicity incubated for 5 days by MTT assay; format: functional, organism-based; conditions: Human immunodeficiency virus 1, IIIB, MT4, 120 h
[6] = Selectivity index, ratio of CC50 for human MT4 cells to EC50 for antiviral activity against HIV-1 IIIB infected in human MT4 cells; format: toxicity, cell-based; conditions: MT4 cells (uninfected and infected with HIV-1 IIIB), read-out: Ratio CC50/EC50
[7] = tested on: Human immunodeficiency virus 1; assay: Antiviral activity against HIV-1 harboring reverse transcriptase F227L/V106A mutant infected in human MT4 cells assessed as protection against virus-induced cytopathic effect incubated for 5 days by MTT assay; conditions: Human immunodeficiency virus 1, MT4, 120 h
[8] = tested on: Human immunodeficiency virus 1; assay: Antiviral activity against HIV-1 harboring reverse transcriptase K103N mutant infected in human MT4 cells assessed as protection against virus-induced cytopathic effect incubated for 5 days by MTT assay; conditions: Human immunodeficiency virus 1, MT4, 120 h
[9] = tested on: Human immunodeficiency virus 1; assay: Antiviral activity against HIV1 L1001 infected in human MT4 cells assessed as protection against virus-induced cytopathic effect incubated for 5 days by MTT assay; format: functional, organism-based; conditions: Human immunodeficiency virus 1, L1001, MT4, 120 h
[10] = tested on: Human immunodeficiency virus 1; assay: Antiviral activity against HIV-1 harboring reverse transcriptase Y188L mutant infected in human MT4 cells assessed as protection against virus-induced cytopathic effect incubated for 5 days by MTT assay; conditions: Human immunodeficiency virus 1, MT4, 120 h
[11] = tested on: Human immunodeficiency virus 1; assay: Antiviral activity against HIV-1 harboring reverse transcriptase Y181C mutant infected in human MT4 cells assessed as protection against virus-induced cytopathic effect incubated for 5 days by MTT assay; conditions: Human immunodeficiency virus 1, MT4, 120 h
[12] = tested on: Human immunodeficiency virus 1; assay: Antiviral activity against HIV-1 harboring reverse transcriptase E138K mutant infected in human MT4 cells assessed as protection against virus-induced cytopathic effect incubated for 5 days by MTT assay; conditions: Human immunodeficiency virus 1, MT4, 120 h
[13] = Selectivity index, ratio of CC50 for human MT4 cells to EC50 for antiviral activity against HIV-1 IIIB harboring K103N/Y181C double mutant; format: toxicity; conditions: read-out: Ratio CC50/EC50
[14] = tested on: Human immunodeficiency virus 1; assay: Antiviral activity against HIV-1 IIIB harboring K103N/Y181C double mutant; format: functional, organism-based; conditions: Human immunodeficiency virus 1, IIIB
[15] = Cytotoxicity against human MT4 cells; format: toxicity, cell-based
[16] = Selectivity index, ratio of CC50 for human MT4 cells to EC50 for antiviral activity against HIV-1 IIIB; format: toxicity; conditions: read-out: Ratio CC50/EC50
[17] = tested on: Human immunodeficiency virus 1; assay: Antiviral activity against HIV-1 IIIB; format: functional, organism-based; conditions: Human immunodeficiency virus 1, IIIB
[18] = Aqueous solubility of the compound at pH 7.0 by HPLC analysis; format: physicochemical; conditions: buffer
[19] = Aqueous solubility of the compound at pH 7.4 by HPLC analysis; format: physicochemical; conditions: buffer

Row | Compound | IC50 [1] [nM] | CC50 at 120 h [2] [nM] | EC50 [3] [nM] | selectivity ratio [4] | EC50 [5] [nM] | selectivity ratio [6] | also measured
1 | Cc1cc(/C=C/C#N)cc(C)c1Oc1nc(NC2CCN(c3ccc(C(N)=O)cc3)CC2)nc2c1COC2 | 60 | > 233000 | 2.38 | > 234 | 992 | > 97900 | –
2 | Cc1cc(/C=C/C#N)cc(C)c1Oc1nc(Nc2ccc(CN3CCN(S(N)(=O)=O)CC3)cc2)nc2c1COC2 | 280 | – | – | – | – | – | –
3 | Cc1cc(/C=C/C#N)cc(C)c1Oc1nc(NC2CCN(c3ccc(NS(N)(=O)=O)cc3)CC2)nc2c1COC2 | 120 | 23000 | 16.8 | 260 | 88.9 | 1370 | EC50 [7]: 19.9 nM; EC50 [8]: 13.1 nM; EC50 [9]: 1250 nM; EC50 [10]: 141 nM; EC50 [11]: 46.5 nM; EC50 [12]: 34.6 nM
4 | Cc1cc(/C=C/C#N)cc(C)c1Oc1nc(NC2CCN(Cc3ccc(S(N)(=O)=O)cc3)CC2)nc2c1COC2 | 140 | 14700 | 6.24 | 595 | 24.7 | 2360 | EC50 [7]: 11.9 nM; EC50 [8]: 5.97 nM; EC50 [9]: 5.12 nM; EC50 [10]: 38 nM; EC50 [11]: 7.71 nM; EC50 [12]: 10.3 nM
5 | Cc1cc(/C=C/C#N)cc(C)c1Oc1nc(NC2CCN(c3ccc(S(N)(=O)=O)cc3)CC2)nc2c1COC2 | 60 | 27300 | 4.18 | 23 | 1300 | 6530 | –
6 | Cc1cc(/C=C/C#N)cc(C)c1Oc1nc(NC2CCN(Cc3ccc(S(C)(=O)=O)cc3)CC2)nc2c1COC2 | 150 | 9790 | 4.33 | 283 | 34.6 | 2260 | EC50 [7]: 16.3 nM; EC50 [8]: 6.47 nM; EC50 [9]: 5.18 nM; EC50 [10]: 41.4 nM; EC50 [11]: 9.96 nM; EC50 [12]: 15.4 nM
7 | Cc1cc(/C=C/C#N)cc(C)c1Oc1nc(Nc2ccc(C#N)cc2)nc2c1COC2 | 60 | – | – | – | – | – | –
8 | Cc1cc(/C=C/C#N)cc(C)c1Oc1nc(NC2CCN(c3ccc(S(C)(=O)=O)cc3)CC2)nc2c1COC2 | 70 | 104000 | 6.3 | 87 | 1200 | 16500 | –
9 | Cc1cc(/C=C/C#N)cc(C)c1Oc1nc(NC2CCN(Cc3ccc([N+](=O)[O-])cc3)CC2)nc2c1COC2 | 180 | 6670 | 8.32 | 103 | 65 | 801 | EC50 [7]: 60.5 nM; EC50 [8]: 7.78 nM; EC50 [9]: 10.4 nM; EC50 [10]: 94 nM; EC50 [11]: 26.8 nM; EC50 [12]: 21.7 nM
10 | Cc1cc(/C=C/C#N)cc(C)c1Oc1nc(NC2CCN(Cc3ccc(N)cc3)CC2)nc2c1COC2 | 190 | 27000 | 3.37 | 505 | 53.5 | 8020 | EC50 [7]: 37.6 nM; EC50 [8]: 5.58 nM; EC50 [9]: 10.2 nM; EC50 [10]: 51.4 nM; EC50 [11]: 9.36 nM; EC50 [12]: 9.16 nM
11 | Cc1cc(/C=C/C#N)cc(C)c1Oc1nc(NC2CCN(Cc3ccc(C(F)(F)F)cc3)CC2)nc2c1COC2 | 360 | 5010 | 19.5 | 26 | 190 | 256 | EC50 [7]: 199 nM; EC50 [8]: 30.1 nM; EC50 [9]: 34.5 nM; EC50 [10]: 282 nM; EC50 [11]: 65.6 nM; EC50 [12]: 129 nM
12 | Cc1cc(/C=C/C#N)cc(C)c1Oc1nc(NC2CCN(c3ccc(N)cc3)CC2)nc2c1COC2 | 180 | 9140 | 35.4 | 37 | 249 | 258 | –
13 | Cn1c(Cn2ccc(C(F)(F)F)c(Oc3cc(Cl)cc(C#N)c3)c2=O)n[nH]c1=O [DORAVIRINE] | – | – | – | – | – | – | selectivity ratio [13]: > 20100; EC50 [14]: 14.5 nM; CC50 [15]: > 293000 nM; selectivity ratio [16]: > 21800; EC50 [17]: 13.3 nM
14 | Cc1cc(C#N)cc(C)c1Oc1nc(Nc2ccc(C#N)cc2)nc(N)c1Br [ETRAVIRINE] | – | > 4590 | – | > 64 | 72.3 | > 1170 | EC50 [7]: 21.4 nM; EC50 [8]: 4.65 nM; solubility [18]: < 1 µg/mL; solubility [19]: < 1 µg/mL; EC50 [10]: 48.7 nM; EC50 [12]: 15.4 nM
15 | Cc1cc(/C=C/C#N)cc(C)c1Nc1ccnc(Nc2ccc(C#N)cc2)n1 [RILPIVIRINE] | – | – | – | – | – | – | solubility [18]: < 1 µg/mL; solubility [19]: < 1 µg/mL

Second part, led by results:

Row | IC50 [1] [nM] | Compound | CC50 at 120 h [2] [nM] | EC50 [3] [nM] | selectivity ratio [4] | EC50 [5] [nM] | selectivity ratio [6] | also measured
16 | 1320 | Cc1cc(/C=C/C#N)cc(C)c1Oc1nc(Nc2ccc(N3CCC(NS(N)(=O)=O)CC3)cc2)nc2c1COC2 | – | – | – | – | – | –
17 | 460 | Cc1cc(/C=C/C#N)cc(C)c1Oc1nc(Nc2ccc(N3CCC(NS(C)(=O)=O)CC3)cc2)nc2c1COC2 | – | – | – | – | – | –
18 | 780 | Cc1cc(/C=C/C#N)cc(C)c1Oc1nc(Nc2ccc(N3CCCC(NS(N)(=O)=O)C3)cc2)nc2c1COC2 (stereo unspecified) | – | – | – | – | – | –
19 | 230 | Cc1cc(/C=C/C#N)cc(C)c1Oc1nc(Nc2ccc(C3CCCN(S(C)(=O)=O)CC3)cc2)nc2c1COC2 (stereo unspecified) | – | – | – | – | – | –
20 | 710 | Cc1cc(/C=C/C#N)cc(C)c1Oc1nc(Nc2ccc(N3CCN(S(N)(=O)=O)CC3)cc2)nc2c1COC2 | – | – | – | – | – | –
21 | 150 | Cc1cc(/C=C/C#N)cc(C)c1Oc1nc(Nc2ccc(CN3CCN(S(C)(=O)=O)CC3)cc2)nc2c1COC2 | – | – | – | – | – | –
22 | 1060 | Cc1cc(/C=C/C#N)cc(C)c1Oc1nc(Nc2ccc(N3CCC(NS(N)(=O)=O)C3)cc2)nc2c1COC2 (stereo unspecified) | – | – | – | – | – | –
23 | 180 | Cc1cc(/C=C/C#N)cc(C)c1Oc1nc(Nc2ccc(N3CCC(NS(C)(=O)=O)C3)cc2)nc2c1COC2 (stereo unspecified) | – | – | – | – | – | –
24 | 180 | Cc1cc(/C=C/C#N)cc(C)c1Oc1nc(Nc2ccc(N3CCN(S(C)(=O)=O)CC3)cc2)nc2c1COC2 | – | – | – | – | – | –
25 | 1240 | Cc1cc(/C=C/C#N)cc(C)c1Oc1nc(Nc2ccc(N3CCCC(NS(C)(=O)=O)C3)cc2)nc2c1COC2 (stereo unspecified) | – | – | – | – | – | –
26 | 90 | Cc1cc(/C=C/C#N)cc(C)c1Oc1nc(Nc2ccc(C3CCCN(S(N)(=O)=O)CC3)cc2)nc2c1COC2 (stereo unspecified) | – | – | – | – | – | –

Reference: ChEMBL document CHEMBL5038655, “Development of Novel Dihydrofuro[3,4-d]pyrimidine Derivatives as HIV-1 NNRTIs to Overcome the Highly Resistant Mutant Strains F227L/V106A and K103N/Y181C” (J Med Chem, 2022)
